# Measured values from ChEMBL document CHEMBL5257089, “Gamabufotalin Induces Apoptosis and Cytoprotective Autophagy through the mTOR Signaling Pathway in Hepatocellular Carcinoma” (J Nat Prod, 2023).
# Calls of active or inactive are those of the source. No cut-off for these calls is given here.
# Tests used:
# Huh-7 [1] = assay: Induction of apoptosis in human Huh-7 cells assessed as increase in PARP level at 10 nM incubated for 48 hrs in presence of gamabufotalin by immunoblot analysis; type: functional, cell-based
# Huh-7 [2] = assay: Induction of autophagic flux in human Huh-7 cells harbouring mCherry-egfp-LC3 assessed as increase in yellow puncta ratio at 10 nM by fluorescence imaging based assay; type: functional, cell-based
# Hep 3B2 [3] = assay: Induction of apoptosis in human Hep3B cells assessed as viable cells at 10 nM incubated for 48 hrs in presence of gamabufotalin by Annexin V-FITC/PI staining based flow cytometry method (reference value: 94.0%); type: functional; details: read-out: Activity
# Huh-7 [4] = assay: Induction of autophagic flux in human Huh-7 cells assessed as increase in number of autophagic vesicles at 10 nM by transmission electron microscopic analysis; type: functional, cell-based
# Huh-7 [5] = assay: Induction of apoptosis in human Huh-7 cells assessed as increase in cleaved caspase-3 level at 10 nM incubated for 48 hrs in presence of gamabufotalin by immunoblot analysis; type: functional, cell-based
# Hep 3B2 [6] = assay: Antitumor activity against human Hep3B cells xenografted in nude mouse model assessed as decrease in tumor volume at 5 mg/kg,ip administered every second day for 3 weeks by vernier caliper method; type: functional, organism-based
# Huh-7 [7] = assay: Induction of apoptosis in human Huh-7 cells assessed as late apoptotic cells at 25 nM incubated for 48 hrs by Annexin V-FITC/PI staining based flow cytometry method (reference value: 4.7%); type: functional
# Huh-7 [8] = assay: Induction of apoptosis in human Huh-7 cells assessed as early apoptotic cells at 20 nM incubated for 48 hrs by Annexin V-FITC/PI staining based flow cytometry method (reference value: 1.7%); type: functional
# Hep 3B2 [9] = assay: Induction of apoptosis in human Hep3B cells assessed as viable cells at 25 nM measured after 48 hrs by annexin V-FITC/Propidium iodide staining based flow cytometric analysis (reference value: 95.6%); type: functional; details: read-out: Activity
# Hep 3B2 [10] = assay: Induction of apoptosis in human Hep3B cells assessed as viable cells at 25 nM incubated for 48 hrs by Annexin V-FITC/PI staining based flow cytometry method (Rvb =95.7%); type: functional; details: read-out: Activity
# Hep 3B2 [11] = assay: Induction of apoptosis in human Hep3B cells assessed as viable cells at 25 nM incubated for 48 hrs by Annexin V-FITC/PI staining based flow cytometry method (reference value: 94.0%); type: functional; details: read-out: Activity
# Huh-7 [12] = assay: Induction of apoptosis in human Huh-7 cells assessed as increase in PARP level at 25 nM incubated for 48 hrs in presence of chloroquine by immunoblot analysis; type: functional, cell-based
# Huh-7 [13] = assay: Induction of autophagy in human Huh-7 cells assessed as restoration of mTOR phosphorylation expression at 25 uM incubated for 48 hrs in presence of 4,6-dimorpholino-N-(4-nitrophenyl)-1,3,5-triazin-2-amine by immunoblot analysis; type: functional, cell-based
# [14] = Toxicity in mouse assessed as effect on heart at 5 mg/kg,ip administered every second day for 3 weeks by H and E staining based microscopic method; type: organism-based; details: in vivo, 504 h
# Hep 3B2 [15] = assay: Induction of apoptosis in human Hep3B cells assessed as early apoptotic cells at 25 nM incubated for 48 hrs in presence of 4,6-dimorpholino-N-(4-nitrophenyl)-1,3,5-triazin-2-amine by Annexin V-FITC/PI staining based flow cytometry method (reference value: 1.3%); type: functional
# Huh-7 [16] = assay: Induction of apoptosis in human Huh-7 cells assessed as upregulation of PARP level […] incubated for 48 hrs in presence of 4,6-dimorpholino-N-(4-nitrophenyl)-1,3,5-triazin-2-amine by immunoblot analysis; type: functional, cell-based
# Hep 3B2 [17] = assay: Induction of morphological changes in human Hep3B cells assessed as adherent cells at upto 25 nM incubated for 48 hrs by bright field imaging analysis; type: functional, cell-based
# Huh-7 [18] = assay: Induction of apoptosis in human Huh-7 cells assessed as early apoptotic cells at 25 nM incubated for 48 hrs in presence of 4,6-dimorpholino-N-(4-nitrophenyl)-1,3,5-triazin-2-amine by Annexin V-FITC/PI staining based flow cytometry method (reference value: 4.3%); type: functional
# Hep 3B2 [19] = assay: Induction of autophagic flux in human Hep3B cells assessed as increase in LC3-II expression at upto 25 nM incubated for 48 hrs by Western blot analysis; type: functional, cell-based
# Huh-7 [20] = assay: Induction of apoptosis in human Huh-7 cells assessed as necrotic cells at 20 nM incubated for 48 hrs by Annexin V-FITC/PI staining based flow cytometry method (reference value: 0.7%); type: functional
# Huh-7 [21] = assay: Induction of apoptosis in human Huh-7 cells assessed as upregulation of cleaved caspase-3 level […] incubated for 48 hrs in presence of 4,6-dimorpholino-N-(4-nitrophenyl)-1,3,5-triazin-2-amine by immunoblot analysis; type: functional, cell-based
# Huh-7 [22] = assay: Induction of apoptosis in human Huh-7 cells assessed as upregulation of bax level […] incubated for 48 hrs in presence of 4,6-dimorpholino-N-(4-nitrophenyl)-1,3,5-triazin-2-amine by immunoblot analysis; type: functional, cell-based
# Hep 3B2 [23] = assay: Induction of autophagic flux in human Hep3B cells harbouring mCherry-egfp-LC3 assessed as reduction in number of yellow puncta ratio at 25 nM incubated for 15 mins in presence of chloroquine by laser scanning confocal microscopic analysis; type: functional, cell-based
# Huh-7 [24] = assay: Induction of autophagic flux in human Huh-7 cells assessed as increase in intracellular vesicles at 25 nM incubated for 48 hrs by transmission electron microscopic analysis; type: functional, cell-based
# Hep 3B2 [25] = assay: Induction of apoptosis in human Hep3B cells assessed as early apoptotic cells at 25 nM measured after 48 hrs in presence of Z-VAD-FMK by annexin V-FITC/Propidium iodide staining based flow cytometric analysis (reference value: 1.6%); type: functional
# Hep 3B2 [26] = assay: Induction of autophagic flux in human Hep3B cells assessed as increase in LC3-I expression at upto 25 nM incubated for 48 hrs by Western blot analysis; type: functional, cell-based
# Hep 3B2 [27] = assay: Antitumor activity against human Hep3B cells xenografted in nude mouse model assessed as downregulation of Bcl-2 expression at 5 mg/kg,ip administered every second day for 3 weeks by Western blot analysis; type: functional, organism-based
# Hep 3B2 [28] = assay: Induction of apoptosis in human Hep3B cells assessed as upregulation of cleaved caspase-3 level […] incubated for 48 hrs in presence of 4,6-dimorpholino-N-(4-nitrophenyl)-1,3,5-triazin-2-amine by immunoblot analysis; type: functional, cell-based
# Huh-7 [29] = assay: Induction of apoptosis in human Huh-7 cells assessed as early apoptotic cells at 25 nM measured after 48 hrs in presence of z-VAD-FMK by annexin V-FITC/Propidium iodide staining based flow cytometric analysis (reference value: 2.2%); type: functional
# Hep 3B2 [30] = assay: Induction of apoptosis in human Hep3B cells assessed as late apoptotic cells at 15 nM incubated for 48 hrs by Annexin V-FITC/PI staining based flow cytometry method (reference value: 2.6%); type: functional
# Huh-7 [31] = assay: Induction of apoptosis in human Huh-7 cells assessed as necrotic cells at 25 nM measured after 48 hrs by annexin V-FITC/Propidium iodide staining based flow cytometric analysis (reference value: 0.0%); type: functional
# Hep 3B2 [32] = assay: Antitumor activity against human Hep3B cells xenografted in nude mouse model assessed as upregulation of LC3 II expression at 5 mg/kg,ip administered every second day for 3 weeks by Western blot analysis; type: functional, organism-based
structure (smiles),measurement,setting,value
CCN(CC)CCCC(C)Nc1ccnc2cc(Cl)ccc12 (configuration not stated) [CHLOROQUINE],Activity,Huh-7 [1],Active
same,Activity,Huh-7 [2],Active
same,viability at 0.01 µM,Hep 3B2 [3],63.9%
same,Activity,Huh-7 [4],Active
same,Activity,Huh-7 [5],Active
C[C@]12CC[C@H](O)C[C@H]1CC[C@@H]1[C@@H]2[C@H](O)C[C@]2(C)[C@@H](c3ccc(=O)oc3)CC[C@]12O [GAMABUFOTALIN],Activity,Hep 3B2 [6],Active
same,Activity,Huh-7 [7],10.2%
same,Activity,Huh-7 [8],5.5%
same,viability at 0.025 µM,Hep 3B2 [9],79.6%
same,viability at 0.025 µM,Hep 3B2 [10],77.2%
same,viability at 0.025 µM,Hep 3B2 [11],71.4%
same,Activity,Huh-7 [12],Active
same,Activity,Huh-7 [13],Active
same,Activity,[14],Non-Toxic
same,Activity,Hep 3B2 [15],10.9%
same,Activity,Huh-7 [16],Active
same,Activity,Hep 3B2 [17],Active
same,Activity,Huh-7 [18],14.9%
same,Activity,Hep 3B2 [19],Active
same,Activity,Huh-7 [20],4.9%
same,Activity,Huh-7 [21],Active
same,Activity,Huh-7 [22],Active
same,Activity,Hep 3B2 [23],Active
same,Activity,Huh-7 [24],Active
same,Activity,Hep 3B2 [25],4.4%
same,Activity,Hep 3B2 [26],Active
same,Activity,Hep 3B2 [27],Active
same,Activity,Hep 3B2 [28],Active
same,Activity,Huh-7 [29],3.3%
same,Activity,Hep 3B2 [30],4.5%
same,Activity,Huh-7 [31],1.2%
same,Activity,Hep 3B2 [32],Active
